Assay results from PubChem BioAssay (NCI).
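Following 48 hours of exposure in 96-well plates, responses at five concentrations were used to interpolate endpoints linearly. Definition used: TGI = concentration required for complete inhibition of growth.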

What was measured:
Experiment in all cases: DTP human tumour cell line panel, 48 h
SK-MEL-5 melanoma = tested on: SK-MEL-5 melanoma
NCI-H226 lung = tested on: NCI-H226 lung
SR leukemia = tested on: SR leukemia
OVCAR-3 ovarian = tested on: OVCAR-3 ovarian
OVCAR-5 ovarian = tested on: OVCAR-5 ovarian
PC-3 prostate = tested on: PC-3 prostate
MOLT-4 leukemia = tested on: MOLT-4 leukemia
HCC-2998 colon = tested on: HCC-2998 colon
HOP-92 NSCLC = tested on: HOP-92 NSCLC
KM12 colon = tested on: KM12 colon
MDA-MB-435 = tested on: MDA-MB-435
786-0 renal = tested on: 786-0 renal
SNB-19 CNS = tested on: SNB-19 CNS
M14 melanoma = tested on: M14 melanoma
SW-620 colon = tested on: SW-620 colon
U251 CNS = tested on: U251 CNS
EKVX NSCLC = tested on: EKVX NSCLC
NCI-H460 lung = tested on: NCI-H460 lung
SK-MEL-28 melanoma = tested on: SK-MEL-28 melanoma
LOX IMVI melanoma = tested on: LOX IMVI melanoma
T-47D breast = tested on: T-47D breast
NCI-H23 lung = tested on: NCI-H23 lung
SK-MEL-2 melanoma = tested on: SK-MEL-2 melanoma
K-562 leukemia = tested on: K-562 leukemia
CAKI-1 renal = tested on: CAKI-1 renal
SF-539 CNS = tested on: SF-539 CNS
DU-145 prostate = tested on: DU-145 prostate
RPMI-8226 leukemia = tested on: RPMI-8226 leukemia
MDA-MB-231 breast = tested on: MDA-MB-231 breast
NCI/ADR-RES ovarian = tested on: NCI/ADR-RES ovarian
SNB-75 CNS = tested on: SNB-75 CNS
BT-549 breast = tested on: BT-549 breast
SF-295 CNS = tested on: SF-295 CNS
RXF 393 renal = tested on: RXF 393 renal
HOP-62 NSCLC = tested on: HOP-62 NSCLC
A549 NSCLC = tested on: A549 NSCLC
A498 renal = tested on: A498 renal
MCF7 breast = tested on: MCF7 breast
MDA-N = tested on: MDA-N
CCRF-CEM leukemia = tested on: CCRF-CEM leukemia
ACHN renal = tested on: ACHN renal
IGROV1 ovarian = tested on: IGROV1 ovarian
HCT-116 colon = tested on: HCT-116 colon
UACC-257 melanoma = tested on: UACC-257 melanoma
OVCAR-8 ovarian = tested on: OVCAR-8 ovarian
HT29 colon = tested on: HT29 colon
UACC-62 melanoma = tested on: UACC-62 melanoma
SN12C renal = tested on: SN12C renal
HCT-15 colon = tested on: HCT-15 colon
OVCAR-4 ovarian = tested on: OVCAR-4 ovarian
UO-31 renal = tested on: UO-31 renal
COLO 205 colon = tested on: COLO 205 colon
TK-10 renal = tested on: TK-10 renal
HS 578T breast = tested on: HS 578T breast
SK-OV-3 ovarian = tested on: SK-OV-3 ovarian
SF-268 CNS = tested on: SF-268 CNS
MALME-3M melanoma = tested on: MALME-3M melanoma
NCI-H522 lung = tested on: NCI-H522 lung
HL-60(TB) leukemia = tested on: HL-60(TB) leukemia

Measured: TGI

C=CCC1(O)CC(n2cc(C)c(=O)[nH]c2=O)OC1CO[Si](C)(C)C(C)(C)C (centres undefined)
97.7 µM: RPMI-8226 leukemia
42.7 µM: COLO 205 colon
89.6 µM: LOX IMVI melanoma
not listed: TK-10 renal | HS 578T breast | SK-OV-3 ovarian | SF-268 CNS | MALME-3M melanoma | NCI-H522 lung | HL-60(TB) leukemia
> 100 µM: all other assays above

CCCCS(=O)(=O)CCC(N)P(=O)(O)O (centres undefined)
not listed: HCC-2998 colon | SF-539 CNS | MDA-MB-231 breast | RXF 393 renal | A498 renal
> 100 µM: all other assays above

COC(=O)NC(Nc1ccccn1)(C(F)(F)F)C(F)(F)F
not listed: PC-3 prostate | SF-295 CNS | SN12C renal | OVCAR-4 ovarian | COLO 205 colon
> 100 µM: all other assays above

C=C(C)[C@@H]1CCC2=C[C@@H](OC2=O)[C@@H](C(=C)C)C2=CC(C(=O)O)=C(C1)O2
not listed: SR leukemia | PC-3 prostate | U251 CNS | NCI-H460 lung | SK-MEL-28 melanoma
> 100 µM: all other assays above
